Assay results: patent publication EP0254534A2, “Erythromycin derivatives and compositions and use for inhibiting virus replication and disease” (Robinson, William S., priority 1986, dated 1988)
“And” between values parts separate entries of the source, which are not always exact repeats. Equal values may be shown once. Read-outs that look alike come from different tables or passages of the source.

Tests used:
HTLV III = experiment: Inhibition of growth of HTLV III in infected T-cell line (VB) in tissue culture; culture medium assayed by reverse transcriptase and P-24 ELISA; type: cell-based; settings: HTLV III infected VB T-cells; for inhibition at 1 µg/mL: EMO 1 µg/ml; for inhibition at 5 µg/mL: EMO 5 µg/ml; for inhibition at 10 µg/mL: EMO 10 µg/ml; for inhibition at 20 µg/mL: EMO 20 µg/ml
Description: A sample of 9-0-methyloximinyl erythromycin A (EMO) was tested for capacity to inhibit growth of HTLV III in tissue culture. A T-cell line (VB) was infected with HTLV III and infected cells were incubated with 0, 1, 5, 10 and 20 µgm EMO per ml of tissue culture medium. Culture medium was recovered after 0, 1, 2, 3, and 4 days of incubation and assayed for HTLV III production by reverse transcriptase and viral antigen (P-24) testing by ELISA.

DHBV = experiment: In vivo replication of DHBV in chronically infected Pekin ducks; serum viral DNA by slot blot hybridization
Description: A sample of 9-0-methyloximinyl erythromycin A (EMO) in solution at a concentration of 100 mg/ml in dimethyl sulfoxide (DMSO) was administered subcutaneously at a dose of 15 mg/kg/day for 14 days to a group of 10-week old Pekin ducks chronically infected with DHBV (experimentally infected as described by Marion et al., "Liver Disease Associated with Duck Hepatitis B Virus Infection of Domestic Ducks", Proc. Natl. Acad. Sci. USA (1984) 81:898). Another group of 10-week old Pekin ducks were used as a control and treated with the same dose of DMSO alone. In vivo replication of virus was assessed by measuring levels of DHBV virus in the serum of infected animals before, during, and after treatment. Virus levels in serum were determined by quantitating the DNA of the virus by slot blot hybridization. Ten µl of each serum was made up to 0.1 M with NaOH to disrupt virus and denature the viral DNA. The samples were spotted on nylon membrane which binds single stranded DNA. The filter-bound viral DNA was detected by hybridization with a DHBV [³²P]- DNA probe followed by autoradiography. The quantity of viral DNA in each serum sample, expressed as picograms of viral DNA/ml serum, was determined by comparing densitometer tracings of the exposed area of film overlying each serum spot on the nylon membrane with a standard curve derived from densitometer tracings for known amounts of DHBV DNA similarly spotted on the same nylon membrane.
EMO was administered beginning on day 8 for 14 days at the rate of 15 mg/kg/day. The low level was retained until day 22 (when EMO treatment was discontinued) thereafter the viral level began to climb and was followed to day 32, where the level reached about 650 picograms DHPV DNA/ml serum.
Table 2 summarizes the results of treatment of four animals with erythromycin A 9-0-methyloxime (EMO) in DMSO and four animals with DMSO alone as determined on day 22 after termination of administration of the drug after 14 days. Virus was similarly found to be suppressed by EMO treatment in each animal and not by DMSO.

[1] = culture medium, read-out: % Reduction Reverse Transcriptase
[2] = viral antigen by ELISA, read-out: % Reduction P-24

CCC1OC(=O)C(C)C(OC2CC(C)(OC)C(O)C(C)O2)C(C)C(OC2OC(C)CC(N(C)C)C2O)C(C)(O)CC(C)C(=NOC)C(C)C(O)C1(C)O (centres unmarked) [EMO, 9-0-methyloximinyl erythromycin A]
inhibition at 1 µg/mL (HTLV III; [1]): 10% | inhibition at 1 µg/mL (HTLV III; [2]): 8% | inhibition at 5 µg/mL (HTLV III; [1]): 50% | inhibition at 5 µg/mL (HTLV III; [2]): 45% | inhibition at 10 µg/mL (HTLV III; [1]): 73% | inhibition at 10 µg/mL (HTLV III; [2]): 69% | inhibition at 20 µg/mL (HTLV III; [1]): 82% | inhibition at 20 µg/mL (HTLV III; [2]): 86% | % Reduction in DHBV DNA In Serum After 14 Days Treatment (DHBV; 15 mg/kgm/day in DMSO, subcutaneous, 14 days, individual ducks (Animal No. 1-4), determined on day 22): 100% (2×) and 96% and 94% | picograms of DHPV DNA/ml serum (DHBV; by day 12 (EMO 15 mg/kg/day from day 8 for 14 days; 900 at day 0, maximum 1500 by day 8), low level retained until day 22): below the level of detection | picograms of DHPV DNA/ml serum (DHBV; day 32, 10 days after EMO treatment was discontinued (day 22)): about 650 picograms DHPV DNA/ml serum
